From ChEMBL document CHEMBL5233279, “d-Mannose binding, aggregation property, and antifungal activity of amide derivatives of pradimicin A” (Bioorg Med Chem, 2021)
Converted amounts (≈) assume the structure as drawn.

What was measured:
[1] = Aggregation property of the compound in MPOS buffer at pH 7.0 assessed as compound remaining in supernatant incubated for 15 mins at 37 degreeC followed by 30 mins incubation at room temperature by HPLC based sedimentation assay relative to control; format: physicochemical; set-up: concentration or dose not given beside the values; conditions: pH 7, 0.75 h, time 45 min
[2] = Binding affinity to methyl alpha-D-mannopyranoside (unknown origin) in MPOS buffer at pH 7.0 assessed as secondary dissociation constant (Kd2) by ITC experiment
[3] = Binding affinity to methyl alpha-D-mannopyranoside (unknown origin) in MPOS buffer at pH 7.0 assessed as primary dissociation constant (Kd1) by ITC experiment
Diutina rugosa = assay: Antifungal activity against Candida rugosa AJ14513 assessed as inhibition of fungal growth incubated for 48 hrs; format: functional
[4] = Aggregation property of the compound in MPOS buffer at pH 7.0 assessed as compound remaining in supernatant at 1 mM incubated for 15 mins at 37 degreeC followed by 30 mins incubation at room temperature by HPLC based sedimentation assay relative to control; format: physicochemical; conditions: pH 7, 0.75 h, 1000 µM, time 45 min
[5] = Binding affinity to D-mannose (unknown origin) in MPOS buffer at pH 7.0 assessed as secondary dissociation constant (Kd2) by ITC experiment
[6] = Binding affinity to D-mannose (unknown origin) in MPOS buffer at pH 7.0 assessed as primary dissociation constant (Kd1) by ITC experiment
[7] = Aggregation property of the compound in MPOS buffer at pH 7.0 incubated for 15 mins at 37 degreeC followed by 30 mins incubation at room temperature by HPLC based sedimentation assay; format: physicochemical; conditions: pH 7, 0.75 h, time 45 min

Structure (SMILES)	Activity [1]	Kd [2]	Kd [3]	MIC (Diutina rugosa)	Activity [4]	Kd [5]	Kd [6]	Activity [7]
CN[C@@H]1[C@H](O[C@@H]2OC[C@@H](O)[C@H](O)[C@H]2O)[C@@H](O)[C@H](O[C@H]2c3cc(C)c(C(=O)N[C@H](C)C(=O)NOC)c(O)c3-c3c(cc4c(c3O)C(=O)c3cc(OC)cc(O)c3C4=O)[C@@H]2O)O[C@@H]1C	65%	5300 µM	360 µM	16 mg/L (≈ 18.4 µM)				
CNC(=O)[C@@H](C)NC(=O)c1c(C)cc2c(c1O)-c1c(cc3c(c1O)C(=O)c1cc(OC)cc(O)c1C3=O)[C@H](O)[C@H]2O[C@@H]1O[C@H](C)[C@H](NC)[C@H](O[C@@H]2OC[C@@H](O)[C@H](O)[C@H]2O)[C@H]1O		6500 µM	860 µM	16 mg/L (≈ 18.7 µM)	> 60%			
CN[C@@H]1[C@H](O[C@@H]2OC[C@@H](O)[C@H](O)[C@H]2O)[C@@H](O)[C@H](O[C@H]2c3cc(C)c(C(=O)N[C@H](C)C(=O)N(C)OC)c(O)c3-c3c(cc4c(c3O)C(=O)c3cc(OC)cc(O)c3C4=O)[C@@H]2O)O[C@@H]1C	65%	5200 µM	340 µM	16 mg/L (≈ 18.1 µM)				
CN[C@@H]1[C@H](O[C@@H]2OC[C@@H](O)[C@H](O)[C@H]2O)[C@@H](O)[C@H](O[C@H]2c3cc(C)c(C(=O)N[C@H](C)C(N)=O)c(O)c3-c3c(cc4c(c3O)C(=O)c3cc(OC)cc(O)c3C4=O)[C@@H]2O)O[C@@H]1C		5500 µM	220 µM	16 mg/L (≈ 19.1 µM)	> 60%			
CN[C@@H]1[C@H](O[C@@H]2OC[C@@H](O)[C@H](O)[C@H]2O)[C@@H](O)[C@H](O[C@H]2c3cc(C)c(C(=O)N[C@H](C)C(=O)NO)c(O)c3-c3c(cc4c(c3O)C(=O)c3cc(OC)cc(O)c3C4=O)[C@@H]2O)O[C@@H]1C	65%	4300 µM	75 µM	8 mg/L (≈ 9.35 µM)		5500 µM	100 µM	
CN[C@@H]1[C@H](O[C@@H]2OC[C@@H](O)[C@H](O)[C@H]2O)[C@@H](O)[C@H](O[C@H]2c3cc(C)c(C(=O)N[C@H](C)C(=O)NN)c(O)c3-c3c(cc4c(c3O)C(=O)c3cc(OC)cc(O)c3C4=O)[C@@H]2O)O[C@@H]1C	65%	9800 µM	300 µM	16 mg/L (≈ 18.7 µM)				
CN[C@@H]1[C@H](O[C@@H]2OC[C@@H](O)[C@H](O)[C@H]2O)[C@@H](O)[C@H](O[C@H]2c3cc(C)c(C(=O)N[C@H](C)C(=O)N(C)O)c(O)c3-c3c(cc4c(c3O)C(=O)c3cc(OC)cc(O)c3C4=O)[C@@H]2O)O[C@@H]1C	65%	3500 µM	180 µM	16 mg/L (≈ 18.4 µM)				
CN[C@@H]1[C@H](O[C@@H]2OC[C@@H](O)[C@H](O)[C@H]2O)[C@@H](O)[C@H](O[C@H]2c3cc(C)c(C(=O)N[C@H](C)C(=O)NCCO)c(O)c3-c3c(cc4c(c3O)C(=O)c3cc(OC)cc(O)c3C4=O)[C@@H]2O)O[C@@H]1C				16 mg/L (≈ 18.1 µM)				
CN[C@@H]1[C@H](O[C@@H]2OC[C@@H](O)[C@H](O)[C@H]2O)[C@@H](O)[C@H](O[C@H]2c3cc(C)c(C(=O)N[C@H](C)C(=O)O)c(O)c3-c3c(cc4c(c3O)C(=O)c3cc(OC)cc(O)c3C4=O)[C@@H]2O)O[C@@H]1C [PRADIMICIN A]		3800 µM	96 µM	4 mg/L (≈ 4.76 µM)				Active
